Experiments:
[1] = system: A/J mice; assay: Cigarette smoke model; type: in vivo; settings: for inhibition of both macrophage and neutrophil accumulation into the BALF: animals previously exposed to cigarette smoke; for Cell numbers in BAL (% Inhibition), Macrophages / Cell numbers in BAL (% Inhibition), Neutrophils / Cell numbers in BAL, Macrophages / Cell numbers in BAL, Neutrophils: Table 8
Method: A/J mice (males, 5 weeks old) were exposed to cigarette smoke (4% cigarette smoke, diluted with air) for 30 min/day for 11 days using a Tobacco Smoke Inhalation Experiment System for small animals (Model SIS-CS; Sibata Scientific Technology, Tokyo, Japan). Test substances were administered intra-nasally (35 μL of solution in 50% DMSO/PBS) twice daily for 3 days after the final cigarette smoke exposure. At 12 hr after the last dosing, each of the animals was anesthetized, the trachea cannulated and bronchoalveolar lavage fluid (BALF) was collected. The numbers of alveolar macrophages and neutrophils were determined by FACS analysis (EPICS® ALTRA II, Beckman Coulter, Inc., Fullerton, Calif., USA) using anti-mouse MOMA2 antibody (macrophage) or anti-mouse 7/4 antibody (neutrophil).
The data for cell numbers are shown as the mean±SEM.

[2] = system: IL-8 release in d-U937 cells; assay: LPS-induced IL-8 release in d-U937 cells; type: cell-based, human; settings: Homo sapiens, dU937
Summary of the method: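 Sandwich ELISA of TNFα and IL-8 in supernatants after 4 hr 0.1 μg/mL LPS (E. coli O111:B4) challenge of U937 cells differentiated with PMA 100 ng/ml for 48–72 hr, compound added 2 hr beforehand. IL-8: IC50 from inhibition versus vehicle; TNFα: REC50 from inhibition as percentage of 10 μg/mL BIRB796 effect.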

[3] = system: TNFα release in THP-1 cells; assay: LPS-induced TNFα release in THP-1 cells; type: cell-based, human; settings: Homo sapiens
Summary of the method: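 IC50 derived from concentration-response of TNFα inhibition relative to vehicle, with TNFα quantified by sandwich ELISA in supernatants. THP-1 cells were challenged 4 hr with LPS (E. coli, 3 μg/mL).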

[4] = molecular target: T1, p38 MAPKγ (MAPK12) (Homo sapiens, UniProt P53778); assay: Enzyme inhibition assay (FRET, Z-LYTE), p38 MAPKγ; type: biochemical; settings: read-out: Enzyme Inhibition IC50 p38γ
T1 construct: purchased Invitrogen
T1 sequence (P53778 1-367): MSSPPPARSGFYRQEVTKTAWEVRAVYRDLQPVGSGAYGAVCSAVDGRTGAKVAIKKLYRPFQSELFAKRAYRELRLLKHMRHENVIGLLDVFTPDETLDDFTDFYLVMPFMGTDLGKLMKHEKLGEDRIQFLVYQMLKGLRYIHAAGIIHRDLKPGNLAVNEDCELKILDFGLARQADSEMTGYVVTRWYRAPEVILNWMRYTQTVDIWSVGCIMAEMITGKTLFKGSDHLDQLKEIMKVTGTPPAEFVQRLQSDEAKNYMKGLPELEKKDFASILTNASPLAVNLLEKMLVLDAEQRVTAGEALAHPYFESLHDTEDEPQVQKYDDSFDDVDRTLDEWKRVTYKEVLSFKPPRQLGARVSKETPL
Summary of the method: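 Z-LYTE FRET readout: after 1 h kinase reaction (ATP 100 μM, peptide 2 μM) following 2 h RT enzyme–compound preincubation in HEPES, protease cleaves only unphosphorylated peptide. Percent inhibition from donor/acceptor ratio relative to control; IC50 fitted from the curve.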

[5] = system: ICAM-1 induction in BEAS2B cells; assay: Poly I:C-induced ICAM-1 induction in BEAS2B cells; type: cell-based, human; settings: Homo sapiens, BEAS-2B, read-out: PolyIC/ICAM1 IC50 BEAS2B
Summary of the method: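 IC50 reflects inhibition of cell-surface ICAM-1 relative to vehicle, read by ELISA (OD450 against 655 nm) and divided by crystal violet OD595 for cell number. Readings were taken 18 hr after transfection of 1 μg/mL poly I:C into BEAS2B cells. Compound was added 2 hr before stimulation.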

[6] = Cigarette smoke + 0.064 μg/mL, intra-nasal twice daily 3 days
[7] = Table 7, Cigarette smoke + 8.0 μg/mL
[8] = Table 7, Cigarette smoke + 40 μg/mL
[9] = Table 7, Cigarette smoke + 200 μg/mL

CNC(=O)Nc1cc(Oc2ccc(NC(=O)Nc3cc(C(C)(C)C)nn3-c3ccc(OC)cc3)c(Cl)c2Cl)ccn1 [Example 9, N-Methyl-N′-4-(4-(3-(3-tert-butyl-1-p-anisyl-1H-pyrazol-5-yl)ureido)-2,3-dichlorophen-1-yloxy)pyridin-2-ylurea]
Cell numbers in BAL (% Inhibition), Macrophage [1, 6]: 19% | Cell numbers in BAL (% Inhibition), Neutrophil [1, 6]: 3% | Cell numbers in BAL, Macrophage [1, 6]: 16.2 ± 1.7 × 10^4/mL | Cell numbers in BAL, Neutrophil [1, 6]: 17.7 ± 2.5 × 10^4/mL | Cell numbers in BAL (% Inhibition), Macrophage ([1]; Cigarette smoke + 0.32 μg/mL): 17% | Cell numbers in BAL (% Inhibition), Neutrophil ([1]; Cigarette smoke + 0.32 μg/mL): 16% | Cell numbers in BAL, Macrophage ([1]; Cigarette smoke + 0.32 μg/mL): 16.5 ± 2.4 × 10^4/mL | Cell numbers in BAL, Neutrophil ([1]; Cigarette smoke + 0.32 μg/mL): 15.5 ± 0.47 × 10^4/mL | Cell numbers in BAL (% Inhibition), Macrophage ([1]; Cigarette smoke + 1.6 μg/mL): 19% | Cell numbers in BAL (% Inhibition), Neutrophil ([1]; Cigarette smoke + 1.6 μg/mL): 21% | Cell numbers in BAL, Macrophage ([1]; Cigarette smoke + 1.6 μg/mL): 16.2 ± 1.3 × 10^4/mL | Cell numbers in BAL, Neutrophil ([1]; Cigarette smoke + 1.6 μg/mL): 14.7 ± 1.6 × 10^4/mL | Cell numbers in BAL (% Inhibition), Macrophage [1, 7]: 39% | Cell numbers in BAL (% Inhibition), Neutrophil [1, 7]: 29% | Cell numbers in BAL, Macrophage [1, 7]: 13.1 ± 1.2 × 10^4/mL | Cell numbers in BAL, Neutrophil [1, 7]: 13.4 ± 1.4 × 10^4/mL | Cell numbers in BAL (% Inhibition), Macrophage [1, 8]: 61% | Cell numbers in BAL (% Inhibition), Neutrophil [1, 8]: 42% | Cell numbers in BAL, Macrophage [1, 8]: 9.9 ± 1.6 × 10^4/mL | Cell numbers in BAL, Neutrophil [1, 8]: 11.2 ± 2.1 × 10^4/mL | Cell numbers in BAL (% Inhibition), Macrophage [1, 9]: 85% | Cell numbers in BAL (% Inhibition), Neutrophil [1, 9]: 72% | Cell numbers in BAL, Macrophage [1, 9]: 6.1 ± 0.93 × 10^4/mL | Cell numbers in BAL, Neutrophil [1, 9]: 6.3 ± 0.79 × 10^4/mL | inhibition of both macrophage and neutrophil accumulation into the BALF [1]: dose-dependent inhibition | IC50 [2]: 800 pM | IC50 [3]: 1000 pM | IC50 [4]: 67200 pM | IC50 [5]: 300 pM

COc1ccc(-n2nc(C(C)(C)C)cc2NC(=O)Nc2ccc(Oc3ccnc(NC(=O)N4CCCC4)c3)c(Cl)c2Cl)cc1 [Example 76, N-(4-(4-(3-(3-(tert-butyl)-1-(4-methoxyphenyl)-1H-pyrazol-5-yl)ureido)-2,3-dichlorophenoxy)pyridin-2-yl)pyrrolidine-1-carboxamide]
Cell numbers in BAL (% Inhibition), Macrophages ([1]; Cigarette smoke + 8.0 μg/mL): 57% | Cell numbers in BAL (% Inhibition), Neutrophils ([1]; Cigarette smoke + 8.0 μg/mL): 52% | Cell numbers in BAL, Macrophages ([1]; Cigarette smoke + 8.0 μg/mL): 8.5 ± 0.35 × 10^4/mL | Cell numbers in BAL, Neutrophils ([1]; Cigarette smoke + 8.0 μg/mL): 9.6 ± 0.48 × 10^4/mL | Cell numbers in BAL (% Inhibition), Macrophages ([1]; Cigarette smoke + 40 μg/mL): 84% | Cell numbers in BAL (% Inhibition), Neutrophils ([1]; Cigarette smoke + 40 μg/mL): 66% | Cell numbers in BAL, Macrophages ([1]; Cigarette smoke + 40 μg/mL): 5.3 ± 0.36 × 10^4/mL | Cell numbers in BAL, Neutrophils ([1]; Cigarette smoke + 40 μg/mL): 7.4 ± 0.76 × 10^4/mL | Cell numbers in BAL (% Inhibition), Macrophages ([1]; Cigarette smoke + 200 μg/mL): 97% | Cell numbers in BAL (% Inhibition), Neutrophils ([1]; Cigarette smoke + 200 μg/mL): 86% | Cell numbers in BAL, Macrophages ([1]; Cigarette smoke + 200 μg/mL): 3.6 ± 0.39 × 10^4/mL | Cell numbers in BAL, Neutrophils ([1]; Cigarette smoke + 200 μg/mL): 4.0 ± 0.49 × 10^4/mL | inhibition of both macrophage and neutrophil accumulation into the BALF [1]: dose-dependent inhibition | IC50 [2]: 800 pM | IC50 [3]: 600 pM | IC50 [4]: 134000 pM | IC50 [5]: 300 pM

Source: US10000471B2, “Pyrazole P38 map kinase inhibitors” (Respivert Limited, priority 2010, dated 2018)
